“And” between values parts separate entries of the source, which are not always exact repeats. Equal values may be shown once.
Tested on: A375 multi-cell spheroids with HUVEC/MSC, viability
Experiment: Anticancer human tumor A375 cell line growth inhibition [GQUAD];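 note: spheroids exposed to compounds for seven days before readout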
Settings: for viability, T/C: stronger effect = lower value; for IC50: curve of compound
Text: DNA G-quadruplex Stabilizer Agents in Combinations in Complex Spheroids
A high-throughput screen of multi-cell type tumor spheroids was designed to identify active combinations of DNA G-quadruplex stabilizer agents and targeted small molecules. Complex spheroids include a stromal component modeled by human endothelial cells (HUVEC) and fibroblasts modeled by human mesenchymal stem cells (MSCs). The concentration ranges selected for each drug and investigational agent were based upon clinically achievable concentrations if the clinical Cmax of the agent was known.
Compounds. The drugs and investigational agents: pidnarulex (CX-5461; NSC782164), APTO-253 (NSC789042), BRACO-19 (NSC847499), peposertib (NSC802822), ceralasertib (NSC780249), elimusertib (NSC800525), camonsertib (NSC841442), AZD-1390 (NSC803789), olaparib (NSC753686), talazoparib (NSC767125), ART-558 (NSC835418), sotorasib (NSC818433), MRTX-1133 (NSC836407), SN-38 (NSC673596), topotecan (NSC609699), etoposide (NSC141540), doxorubicin (NSC123127), gemcitabine (NSC613327), 5-fluorouracil (NSC19893), paclitaxel (NSC125973), vemurafenib (NSC761431), panobinostat (NSC761190), R-306465 (JNJ-16241199; NSC773264), adavosertib (NSC754352), TP-3654 (NSC805149), carboplatin (NSC241240), KSQ-4279 (NSC840948), and staurosporine (NSC755774) were obtained from the National Cancer Institute (NCI) Developmental Therapeutics Program Chemical Repository (34). The FDA-approved anticancer drug set is available from the NCI Developmental Therapeutics Program. […] The stock solutions were prepared in dimethyl sulfoxide (DMSO, Sigma-Aldrich, St. Louis, MO, cat. D2650) at 800-fold the tested concentration and stored at -70 degrees C prior to their use. All drugs and investigational agents were tested over a range starting from a high concentration at or near the clinical Cmax and decreasing in half-log increments. If the clinical Cmax for an agent had not been determined, the highest concentration tested was 10 microM.
2.3 Cell Culture. All cells were maintained in an incubator at 37 degrees C and 5% CO2 with 95% humidity. The PDC lines were cultured according to standard operating procedures established by the NCI PDMR. All PDCs were thawed and cultured in Matrigel-coated flasks prepared with a working solution of 1X Ham's F-12 nutrient mix, without supplementation (Invitrogen, cat. 11765054), 100 U/mL penicillin-streptomycin (Invitrogen, cat. 15140122), and 2.5% Matrigel (Corning Inc., cat. 354248) for the first three passages. The 857933-349-R-J2-PDC line was cultured in 6C/Colon 1B media, which includes advanced DMEM/F-12 (Thermo Fisher Scientific, cat. 12634028), 10 mM HEPES (Thermo Fisher Scientific, cat. 15630080), 1X GlutaMAX supplement (Thermo Fisher Scientific, cat. 35050061), 0.1 mg/mL primocin (InvivoGen, cat. ant-pm-2), 10% defined fetal bovine serum, heat inactivated (HyClone Laboratories Inc., cat. SH30070.03HI), 50% L-WRN conditioned media (ATCC, cat. CRL-3276), 1.25 mM N-Acetyl-L-cysteine (Sigma-Aldrich, cat. A9165), 10 mM nicotinamide (Sigma-Aldrich, cat. N0636), 1X B-27 supplement (Thermo Fisher Scientific, cat. 17504044), 1X N-2 supplement (Thermo Fisher Scientific, cat. 17502048), 10 microM Y-27632 dihydrochloride (Tocris Bioscience, cat. 1254), and 50 ng/mL human EGF recombinant protein (Thermo Fisher Scientific, cat. PHG0311). The 485176-168-R4-J1-PDC line was cultured in Panc media, which includes all 6C/Colon 1B media components plus 100 ng/mL human FGF-10 (Thermo Fisher Scientific, cat. 100-26), 500 nM SB-431542 (Selleckchem, cat. S1067), and gastrin (Tocris, cat. 3006).
[…]

SMILES	viability, T/C (compound 0.0316 µM)	viability, T/C (compound 0.1 µM)	viability, T/C (compound 0.316 µM)	viability, T/C (compound 1 µM)	viability, T/C (compound 3.16 µM)	viability, T/C (compound 10 µM)	IC50
C#Cc1c(F)ccc2cc(O)cc(-c3ncc4c(N5CC6CCC(C5)N6)nc(OCC56CCCN5CC(F)C6)nc4c3F)c12 (stereo not given)	103% and 97.8% and 101%	96% and 106% and 96.2%	97.2% and 96.2% and 108%	101% and 117% (2×)	113% and 106% and 101%	90.4% and 98.4% and 113%	> 10000 nM
C=CCn1c(=O)c2cnc(Nc3ccc(N4CCN(C)CC4)cc3)nc2n1-c1cccc(C(C)(C)O)n1	101% and 98.4% and 96.4%	104% and 102% and 96.9%	89.5% and 96.9% and 102%	48.4% and 59% and 66.4%	11.5% and 13.3% and 17.2%	5.76% and 7.73% and 8.28%	943 nM and 1250 nM and 1470 nM
CC(=O)O[C@H]1C(=O)[C@@]2(C)[C@H]([C@H](OC(=O)c3ccccc3)[C@]3(O)C[C@H](OC(=O)[C@H](O)[C@@H](NC(=O)c4ccccc4)c4ccccc4)C(C)=C1C3(C)C)[C@]1(OC(C)=O)CO[C@@H]1C[C@@H]2O	68.9% and 90.7% and 112%	18.1% and 20.5% and 32.6%	9.64% and 11.9% and 16.6%	9.68% and 8.91% and 13.8%	7.88% and 12.2% and 13.3%	10.8% and 15.2% and 17.8%	48.5 nM and 61.6 nM and 77.6 nM
CC(C)(O)C1CCC(Nc2ccc3ncc(-c4cccc(C(F)(F)F)c4)n3n2)CC1 (stereo not given)	104% and 93.2% and 105%	105% and 99.9% and 95.9%	99.1% and 95.6% and 91.5%	97.7% and 95.2% and 105%	90.2% and 83.5% and 92%	87.5% and 88% and 97.8%	> 10000 nM
CCCS(=O)(=O)Nc1ccc(F)c(C(=O)c2c[nH]c3ncc(-c4ccc(Cl)cc4)cc23)c1F	41.8% and 44% and 40.9%	16.1% and 14.9% and 17.2%	8.83% and 9.93% and 11.1%	6.9% and 7.11% and 7.65%	5.54% and 6.38% and 6.53%	5.63% and 5.69% and 7.54%	< 31.6 nM
COc1cccc2c1C(=O)c1c(O)c3c(c(O)c1C2=O)CC(O)(C(=O)CO)CC3OC1CC(N)C(O)C(C)O1 (stereo not given)	93% and 102% and 100%	89.2% and 78.7% and 73.9%	33.4% and 33.9% and 34.3%	19.4% and 18.2% and 21.9%	1.94% and 2.47% and 2.18%	0.14% and 0.19% and 0.1%	231 nM and 221 nM and 215 nM
COc1ncnc(C2CC2)c1-c1ncc2cnn(Cc3ccc(-c4nc(C(F)(F)F)cn4C(C)C)cc3)c2n1	94% and 97.5% and 102%	93.6% and 99.8% and 99.5%	93.8% and 100% and 99.5%	104% and 98.2% and 103%	109% and 103% and 105%	106% and 108% and 99.5%	> 10000 nM
Nc1ccn(C2OC(CO)C(O)C2(F)F)c(=O)n1 (stereo not given)	17.8% and 12.3% and 18.4%	9.82% and 7.07% and 9.32%	9.4% and 5.69% and 8.76%	10.4% and 6.8% and 10.7%	11.5% and 7.2% and 10.4%	9.06% and 6.96% and 7.8%	< 31.6 nM
O=C(NO)c1cnc(N2CCN(S(=O)(=O)c3ccc4ccccc4c3)CC2)nc1	107% and 124% and 114%	109% and 110% and 112%	5.8% and 7.04% and 12.4%	0.3% and 0.23%	0.3% and 0.39% and 0.16%	0.32% and 0.35% and 0.19%	192 nM and 195 nM and 205 nM
O=c1[nH]cc(F)c(=O)[nH]1	97% and 94.6% and 100%	103% and 94.6% and 105%	106% and 95.4% and 101%	96.8% and 100% and 101%	106% and 94.5% and 104%	104% and 106% and 103%	> 10000 nM
